Data from patent US11274079B2 (DALIAN INSTITUTE OF CHEMICAL PHYSICS, CHINESE ACADEMY OF …, priority 2018, dated 2022).

Key:
M1 receptor = biological target: T1, M1 receptor (Homo sapiens, UniProt P11229); test: DMR assay, antagonism of acetylcholine in CHO-K1 cells stably transfecting the M1 receptor; type: cell-based; details: for IC50: CHO-K1-M1 cells, DMR, acetylcholine 1 μM, 1 h pretreatment, time point 5 min; for antagonistic activity against the M1 receptor, in words: structure-activity comparison with parent compound
T1 construct: expressed in transfected cells; host or cells: CHO-K1
T1 sequence (P11229 1-460): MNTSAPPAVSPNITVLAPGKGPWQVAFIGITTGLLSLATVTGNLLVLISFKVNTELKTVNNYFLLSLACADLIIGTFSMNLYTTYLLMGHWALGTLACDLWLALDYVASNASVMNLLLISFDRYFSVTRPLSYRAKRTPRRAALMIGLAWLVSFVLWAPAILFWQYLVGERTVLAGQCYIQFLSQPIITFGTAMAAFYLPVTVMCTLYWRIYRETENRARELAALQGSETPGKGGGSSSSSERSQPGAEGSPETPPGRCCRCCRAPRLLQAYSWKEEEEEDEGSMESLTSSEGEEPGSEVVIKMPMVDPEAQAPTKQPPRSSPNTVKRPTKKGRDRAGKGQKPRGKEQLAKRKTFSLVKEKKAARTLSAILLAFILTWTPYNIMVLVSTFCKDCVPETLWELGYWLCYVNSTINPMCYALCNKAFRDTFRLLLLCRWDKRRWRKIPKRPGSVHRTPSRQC
Description: (§1) The present invention relates to the antagonistic activity of the compound against the muscarinic receptor, which is primarily assessed by a cell-level dynamic mass redistribution (DMR) assay method. All tests are carried out on Epic platform, wherein the target model of the muscarinic receptor M1 is the CHO-K1 ceil model stably transfecting the M1 receptor, the target model of M3 is the HT-29 cell model endogenously highly expressing the M3 receptor, and the selected probe molecule is acetylcholine. Tire probe molecule acetylcholine is dissolved in water, while all other compounds are dissolved in DMSO.
(§2) The inoculated cell plate is placed in a cell incubator for culture for 12 h until the cell growth and fusion degree reaches about 95%, and the activity assay is carried out. The culture medium is sucked from the cultured ceils, the buffer salt specified by the test is added with a volume of 30 μL per orifice and is stabilized for 1 h. After the baseline is stable, a 2-min baseline is established, and different concentrations of compounds to be tested are added to test the cultured cells for 1 h. After the cells are pretreated with the compounds to be tested for 1 h, the 2-min baseline is re-established, and acetylcholine having a concentration of 1 μM is added to test the cultured cells for 1 h.

M3 receptor = biological target: T2, M3 receptor (Homo sapiens, UniProt P20309); test: DMR assay, antagonism of acetylcholine in HT-29 cells endogenously expressing the M3 receptor; type: cell-based; details: for IC50: HT-29 cells, DMR, acetylcholine 16 μM, 1 h pretreatment, time point 30 min; for antagonistic activity against the M3 receptor, in words: structure-activity comparison with parent compound
T2 construct: HT-29 cell model endogenously highly expressing the M3 receptor; endogenous in cells; host or cells: HT-29
T2 sequence (P20309 whole entry): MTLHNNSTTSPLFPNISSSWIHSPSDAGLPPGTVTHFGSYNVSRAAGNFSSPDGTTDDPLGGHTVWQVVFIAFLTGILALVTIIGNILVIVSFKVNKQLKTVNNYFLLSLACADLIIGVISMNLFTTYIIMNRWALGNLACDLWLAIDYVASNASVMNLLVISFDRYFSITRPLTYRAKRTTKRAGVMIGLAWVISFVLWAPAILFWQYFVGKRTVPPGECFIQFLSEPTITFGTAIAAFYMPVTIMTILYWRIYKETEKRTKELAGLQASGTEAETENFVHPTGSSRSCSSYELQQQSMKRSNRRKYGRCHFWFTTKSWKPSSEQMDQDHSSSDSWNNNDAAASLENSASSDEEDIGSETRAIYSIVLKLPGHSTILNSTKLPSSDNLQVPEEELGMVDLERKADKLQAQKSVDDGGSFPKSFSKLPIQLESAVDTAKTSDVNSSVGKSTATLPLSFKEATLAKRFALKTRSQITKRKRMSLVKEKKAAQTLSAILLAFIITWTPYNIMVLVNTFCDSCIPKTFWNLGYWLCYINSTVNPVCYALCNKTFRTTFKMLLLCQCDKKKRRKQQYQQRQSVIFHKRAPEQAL
Description: as §1
as §2, with “20” for “12”, “cells,” for “ceils,”, “h.” for “h. After the cells are pretreated with the compounds to be tested for 1 h, the 2-min baseline is re-established, and acetylcholine having a concentration of 1 μM is added to test the cultured cells for 1 h.”

IC50 (M1 receptor) | IC50 (M3 receptor) | antagonistic activity against the M1 receptor, in words (M1 receptor) | antagonistic activity against the M3 receptor, in words (M3 receptor) | SMILES
73.2 ± 12.5 nM | 320 ± 41.4 nM | – | – | COc1ccc(O)c(C(CC2CCCCN2C)c2ccccc2)c1 (stereo not drawn) [II-9, 2-[2-(2-hydroxy-5-methoxy-phenyl)-phenethyl]-N-methylpiperidine]
3340 ± 210 nM | 1210 ± 120 nM | the activity is greatly decreased | the activity is greatly decreased | CC(=O)Oc1ccc(C)cc1C(CC1CCCCN1C)c1ccccc1 (stereo not drawn) [II-24, 2-[2-(2-acetategroup-5-methyl-phenyl)-phenethyl]-N-methylpiperidine]
– | 2620 ± 425 nM | the activity is greatly decreased | the activity is greatly decreased | Cc1ccc(S(=O)(=O)Oc2ccc(C)cc2C(CC2CCCCN2C)c2ccccc2)cc1 (stereo not drawn) [II-26, 2-[2-(2-methylp-toluenesulfonategroup-5-methyl-phenyl)-phenethyl]-N-methylpiperidine]
296 ± 62.9 nM | 239 ± 33.2 nM | – | – | CCN1CCCCC1CC(c1ccccc1)c1cc(C)ccc1O (stereo not drawn) [II-18, 2-[2-(2-hydroxy-5-methyl-phenyl)-phenethyl]-N-ethylpiperidine]
73.2 ± 12.5 nM | 110 ± 13.9 nM | – | – | CCCc1ccc(O)c(C(CC2CCCCN2C)c2ccccc2)c1 (stereo not drawn) [II-6]

Continued, compound first:

SMILES | IC50 (M1 receptor) | IC50 (M3 receptor) | antagonistic activity against the M1 receptor, in words (M1 receptor) | antagonistic activity against the M3 receptor, in words (M3 receptor)
Cc1ccc(O)c(C(CC2CCCC[N+]2(C)C)c2ccc(Cl)cc2)c1 (stereo not drawn) [I-14, 2-[2-(4-chlorophenyl)-2-(2-hydroxy-5-methylphenyl)-ethyl]-N,N-dimethylpiperidine Bromide] | 79.2 ± 36.9 nM | 87.2 ± 36.5 nM | – | –
CN1CCCCC1CC(c1ccccc1O)c1ccccc1O (racemic) [II-3, 2-[2,2-bis(2-hydroxy-phenyl)-ethyl]-N-methylpiperidine] | 43.4 ± 10.6 nM | 13.1 ± 1.9 nM | – | –
Cc1ccc(O)c(C(CC2CCCC[N+]2(C)C)c2ccccc2)c1 (stereo not drawn) [I-4a-I, 2-[2-(2-hydroxy-5-methyl-phenyl)-phenethyl]-N,N-dimethylpiperidine Iodide] | 13.8 ± 1.5 nM | 9.3 ± 1 nM | – | –
Cc1ccc(OC(=O)C(C)C)c(C(CC2CCCC[N+]2(C)C)c2ccccc2)c1 (stereo not drawn) [I-23, 2-[2-(2-isobutyryl estergroup-5-methyl-phenyl)-phenethyl]-N,N-dimethylpiperidine Bromide] | 2530 ± 480 nM | 790 ± 75 nM | – | –
COc1ccccc1C(CC1CCCCN1C)c1ccccc1 (stereo not drawn) [II-17] | 6700 ± 810 nM | 3420 ± 330 nM | – | –
CCc1ccc(O)c(C(CC2CCC[N+]2(C)C)c2ccccc2)c1 (stereo not drawn) [I-20, 2-[2-(2-hydroxy-5-ethyl-phenyl)-phenethyl]-N,N-dimethylpyrrolidine Bromide] | 89 ± 7.3 nM | 53.2 ± 9.3 nM | – | –
CCCc1ccc(O)c(C(CC2CCCC[N+]2(C)C)c2ccccc2)c1 (stereo not drawn) [I-6, 2-[2-(2-hydroxy-5-propyl-phenyl)-phenethyl]-N,N-dimethylpiperidine Bromide] | 133 ± 22.8 nM | 20.3 ± 3.6 nM | – | –
CN1CCCCC1CC(c1ccccc1)c1ccccc1 (stereo not drawn) [II-1, 2-(2,2-Diphenylethyl)-N-Methylpiperidine] | 3130 ± 240 nM | > 10000 nM | – | –
Cc1ccc(OC(=O)c2ccccc2)c(C(CC2CCCC[N+]2(C)C)c2ccccc2)c1 (stereo not drawn) [I-25, 2-[2-(2-benzoate Group-5-methyl-phenyl)-phenethyl]-N,N-dimethylpiperidine Bromide] | 997 ± 60 nM | 2310 ± 600 nM | – | –
CN1CCCCC1CC(c1ccccc1O)c1ccccc1O (single isomer, unassigned) [II-3-1, 2-[2,2-bis(2-hydroxy-phenyl)-ethyl]-N-methylpiperidine] | 30.4 ± 12.6 nM | 15.4 ± 2.9 nM | – | –
CN1CCCCC1CC(c1ccccc1)c1cccs1 (stereo not drawn) [II-21] | 3680 ± 810 nM | 2420 ± 330 nM | – | –
Cc1ccc(O)c(C(CC2CCCC[N+]2(C)C)c2ccccc2)c1 (stereo not drawn) [I-4B-2-Br, 2-[2-(2-hydroxy-5-methyl-phenyl)-phenethyl]-N,N-dimethylpiperidine Bromide] | 157 ± 61.6 nM | 217 ± 37.9 nM | – | –
Cc1ccc(O)c(C(CC2CCC[N+]2(C)C)c2ccccc2)c1 (stereo not drawn) [I-19, 2-[2-(2-hydroxy-5-methyl-phenyl)-phenethyl]-N,N-dimethylpyrrolidine Bromide] | 41 ± 9.2 nM | 29.9 ± 4.7 nM | – | –
